Experimental data published in patent publication US11319315B2, “Cyclohexyl acid triazole azoles as LPA antagonists” (BRISTOL-MYERS SQUIBB COMPANY, priority 2017, dated 2022).
Where two headings read alike, the source gives them in different places.

Target: T1, human LPA1 (Homo sapiens, UniProt Q92633)
T1 construct: expressed in transfected cells; host or cells: Chinese hamster ovary (CHO) cells
Experiment: LPA1 functional antagonist assay (LPA-induced calcium flux in CHO cells overexpressing human LPA1)
Format: cell-based
Settings: read-out: hLPA1 IC50
Experimental: The effectiveness of compounds of the present invention as LPA1 inhibitors can be determined in an LPA1 functional antagonist assay as follows:
Chinese hamster ovary cells overexpressing human LPA1 were plated overnight (15,000 cells/well) in poly-D-lysine coated 384-well microplates (Greiner bio-one, Cat #781946) in DMEM/F12 medium (Gibco, Cat #11039). Following overnight culture, cells were loaded with calcium indicator dye (AAT Bioquest Inc, Cat #34601) for 30 minutes at 37° C. The cells were then equilibrated to room temperature for 30 minutes before the assay. Test compounds solubilized in DMSO were transferred to 384 well non-binding surface plates (Corning, Cat #3575) using the Labcyte Echo acoustic dispense and diluted with assay buffer [IX HBSS with calcium/magnesium (Gibco Cat #14025-092), 20 mM HEPES (Gibco Cat #15630-080) and 0.1% fatty acid free BSA (Sigma Cat #A9205)] to a final concentration of 0.5% DMSO. Diluted compounds were added to the cells by FDSS6000 (Hamamatsu) at final concentrations ranging from 0.08 nM to 5 μM. and were then incubated for 20 min at room temperature at which time LPA (Avanti Polar Lipids Cat #857130C) was added at final concentrations of 10 nM to stimulate the cells. The compound IC50 value was defined as the concentration of test compound which inhibited 50% of the calcium flux induced by LPA alone. IC50 values were determined by fitting data to a 4-parameter logistic equation (GraphPad Prism, San Diego Calif.).

[1] = inhibition of calcium flux induced by 10 nM LPA, CHO cells overexpressing human LPA1

T1 sequence (Q92633 whole entry): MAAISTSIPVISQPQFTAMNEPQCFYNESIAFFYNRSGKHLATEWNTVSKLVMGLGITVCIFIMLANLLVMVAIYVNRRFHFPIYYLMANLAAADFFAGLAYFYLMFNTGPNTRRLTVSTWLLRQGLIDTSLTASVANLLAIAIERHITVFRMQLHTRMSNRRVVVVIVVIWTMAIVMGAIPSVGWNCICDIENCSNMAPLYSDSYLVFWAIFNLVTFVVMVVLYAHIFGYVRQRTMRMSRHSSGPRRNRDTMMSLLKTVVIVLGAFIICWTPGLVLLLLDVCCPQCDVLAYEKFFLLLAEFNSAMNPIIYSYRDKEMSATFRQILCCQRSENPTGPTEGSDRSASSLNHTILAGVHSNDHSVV

| Compound | IC50 [1] | IC50 |
| --- | --- | --- |
| Cc1nc(-c2nnn(C)c2Cn2nnc(C3CCOCC3)n2)ccc1O[C@H]1CCC[C@H](C(=O)O)C1 [Example 308, (1S,3S)-3-{[2-methyl-6-(1-methyl-5-{[5-(oxan-4-yl)-2H-1,2,3,4-tetrazol-2-yl]methyl}-1H-1,2,3-triazol-4-yl)pyridin-3-yl]oxy}cyclohexane-1-carboxylic acid] | 0.714 µM | – |
| C=C(C)c1cnn(Cc2c(-c3ccc(O[C@H]4CCC[C@H](C(=O)O)C4)c(C)n3)nnn2C)n1 [Example 271, (1S,3 S)-3-((2-methyl-6-(1-methyl-5-((4-(prop-1-en-2-yl)-2H-1,2,3-triazol-2-yl)methyl)-1H-1,2,3-triazol-4-yl)pyridin-3-yl)oxy)cyclohexane-1-carboxylic acid] | 0.136 µM | – |
| C=CCn1nnc(NCc2c(-c3ccc(O[C@H]4CCC[C@H](C(=O)O)C4)c(C)n3)nnn2C)n1 [Example 392, (1S,3S)-3-((6-(5-(((2-allyl-2H-tetrazol-5-yl)amino)methyl)-1-methyl-1H-1,2,3-triazol-4-yl)-2-methylpyridin-3-yl)oxy)cyclo-hexane-1-carboxylic acid] | – | 0.167 µM |
| Cc1nc(-c2nnn(C)c2Cn2cnc(-c3ccccc3)n2)ccc1O[C@H]1CCC[C@H](C(=O)O)C1 [Example 208, (1S,3S)-3-((2-Methyl-6-(1-methyl-5-((3-phenyl-1H-1,2,4-triazol-1-yl)methyl)-1H-1,2,3-triazol-4-yl)pyridin-3-yl)oxy)cyclohexane-1-carboxylic acid] | 0.37 µM | – |
| Cc1nc(-c2nnn(C)c2CNc2noc(COC(C)C)n2)ccc1O[C@H]1CCC[C@H](C(=O)O)C1 [Example 145] | 0.031 µM | – |
| Cc1nc(-c2nnn(C)c2CNc2noc(C3CCOC3)n2)ccc1O[C@H]1CCC[C@H](C(=O)O)C1 (stereo partly drawn) [Example 151] | 0.114 µM | – |
| CCCCn1nnc(NCc2c(-c3ccc(O[C@H]4CCC[C@H](C(=O)O)C4)c(C)n3)nnn2C)n1 [Example 382, (1S,3S)-3-((6-(5-(((2-butyl-2H-tetrazol-5-yl)amino)methyl)-1-methyl-1H-1,2,3-triazol-4-yl)-2-methylpyridin-3-yl)oxy)cyclo-hexane-1-carboxylic acid] | – | 0.521 µM |
| CCC(C)n1cnc(NCc2c(-c3ccc(O[C@H]4CCC[C@H](C(=O)O)C4)c(C)n3)nnn2C)n1 (stereo partly drawn) [Example 149] | 0.221 µM | – |
| Cc1nc(-c2nnn(C)c2Cc2nc(CCC(C)C)no2)ccc1O[C@H]1CCC[C@H](C(=O)O)C1 [Example 241, (1 S,3 S)-3-((6-(5-((3-isopentyl-1,2,4-oxadiazol-5-yl)methyl)-1-methyl-1H-1,2,3-triazol-4-yl)-2-methylpyridin-3-yl)oxy)cyclohexane-1-carboxylic acid] | 0.033 µM | – |
| Cc1nc(-c2nnn(C)c2CNc2nc(-c3ccccc3)ns2)ccc1O[C@H]1CCC[C@H](C(=O)O)C1 [Example 9] | 0.038 µM | – |
| CC(C)Cc1nnnn1Cc1c(-c2ccc(O[C@H]3CCC[C@H](C(=O)O)C3)cn2)nnn1C [Example 255, (1S,3S)-3-((6-(5-((5-isobutyl-1H-tetrazol-1-yl)methyl)-1-methyl-1H-1,2,3-triazol-4-yl)pyridin-3-yl)oxy)cyclohexane-1-carboxylic acid] | 0.237 µM | – |
| Cc1nc(-c2nnn(C)c2CNc2noc(C3CCC3)n2)ccc1O[C@H]1CCC[C@H](C(=O)O)C1 [Example 175] | 0.02 µM | – |
| Cc1nc(-c2nnn(C)c2CNc2noc(CCOC(C)C)n2)ccc1O[C@H]1CCC[C@H](C(=O)O)C1 [Example 214, (1S,3S)-3-((6-(5-(((5-(2-isopro-poxyethyl)-1,2,4-oxadiazol-3-yl)amino)methyl)-1-methyl-1H-1,2,3-triazol-4-yl)-2-methylpyridin-3-yl)oxy)cyclohexane-1-carboxylic acid] | 0.246 µM | – |
| Cc1nc(-c2nnn(C)c2Cn2nnnc2-c2cccc(F)c2)ccc1O[C@H]1CCC[C@H](C(=O)O)C1 [Example 321, (1S,3S)-3-((6-(5-((5-(3-fluoro-phenyl)-1H-tetrazol-1-yl)methyl)-1-methyl-1H-1,2,3-triazol-4-yl)-2-methylpyridin-3-yl)oxy)cyclo-hexane-1-carboxylic acid] | 0.428 µM | – |
| CC[C@@H](OC)c1nc(NCc2c(-c3ccc(O[C@H]4CCC[C@H](C(=O)O)C4)c(C)n3)nnn2C)no1 (single isomer, unassigned) [Example 215] | 0.154 µM | – |
| Cc1nc(-c2nnn(C)c2CNc2nc3c(s2)CCCC3)ccc1O[C@H]1CCC[C@H](C(=O)O)C1 [Example 17] | 1.2 µM | – |
| Cc1c(O[C@H]2CCC[C@H](C(=O)O)C2)ccc(-c2nnn(C)c2Cn2nnc(OCC3CC3)n2)[n+]1[O-] [Example 349, 3-{[(1S,3S)-3-carboxycyclohexyl]oxy}-6-(5-{[5-(cyclopropyl-methoxy)-2H-1,2,3,4-tetrazol-2-yl]methyl}-1-methyl-1H-1,2,3-triazol-4-yl)-2-methylpyridin-1-ium-1-olate] | 0.304 µM | – |
| Cc1nc(-c2nnn(C)c2CNc2ncn(C3CCCCC3)n2)ccc1O[C@H]1CCC[C@H](C(=O)O)C1 [Example 36] | 0.147 µM | – |
| Cc1nc(-c2nnn(C)c2Cn2nncc2C2CC2)ccc1O[C@H]1CCC[C@H](C(=O)O)C1 [Example 268, (1S,3S)-3-((6-(5-((5-cyclopropyl-1H-1,2,3-triazol-1-yl)methyl)-1-methyl-1H-1,2,3-triazol-4-yl)-2-methyl-pyridin-3-yl)oxy)cyclohexane-1-carboxylic acid] | 0.301 µM | – |
| Cc1nc(-c2nnn(C)c2COc2nnn(CC3CC3)n2)ccc1O[C@H]1CCC[C@H](C(=O)O)C1 [Example 143] | 0.024 µM | – |
| Cc1nc(-c2nnn(C)c2Cn2nnnc2CC(C)C)ccc1O[C@H]1CCC[C@H](C(=O)O)C1 [Example 328, (1S,3S)-3-((6-(5-((5-isobutyl-1H-tetrazol-1-yl)methyl)-1-methyl-1H-1,2,3-triazol-4-yl)-2-methylpyridin-3-yl)oxy)cyclohexane-1-carboxylic acid] | 0.118 µM | – |
| COc1cccc(Cc2nnnn2Cc2c(-c3ccc(O[C@H]4CCC[C@H](C(=O)O)C4)c(C)n3)nnn2C)c1 [Example 313, (1S,3S)-3-({6-[5-({5-[(3-methoxy-phenyl)methyl]-1H-1,2,3,4-tetrazol-1-yl}methyl)-1-methyl-1H-1,2,3-triazol-4-yl]-2-methylpyridin-3-yl}oxy)cyclohexane-1-carboxylic acid] | 0.277 µM | – |

Further lines, results first:

| IC50 [1] | IC50 | Compound |
| --- | --- | --- |
| 0.1 µM | – | Cc1nc(-c2nnn(C)c2CNc2cnn(C3CCCCC3)n2)ccc1O[C@H]1CCC[C@H](C(=O)O)C1 [Example 27] |
| 0.227 µM | – | CCCCc1nnc(Cc2c(-c3ccc(O[C@H]4CCC[C@H](C(=O)O)C4)c(C)n3)nnn2C)o1 [Example 74] |
| 0.036 µM | – | CCCc1cnc(NCc2c(-c3ccc(O[C@H]4CCC[C@H](C(=O)O)C4)c(C)n3)nnn2C)o1 [Example 138] |
| 0.028 µM | – | Cc1nc(-c2nnn(C)c2Cn2nnc(CC(C)C)n2)ccc1O[C@H]1CCC[C@H](C(=O)O)C1 [Example 327, (1S,3S)-3-((6-(5-((5-isobutyl-2H-tetrazol-2-yl)methyl)-1-methyl-1H-1,2,3-triazol-4-yl)-2-methylpyridin-3-yl)oxy)cyclohexane-1-carboxylic acid] |
| 0.125 µM | – | Cc1nc(-c2nnn(C)c2CNc2ncn(CC(C)C)n2)ccc1O[C@H]1CCC[C@H](C(=O)O)C1 [Example 25, (1 S,3 S)-3-((6-(5-(((1-isobutyl-1H-1,2,4-triazol-3-yl)amino)methyl)-1-methyl-1H-1,2,3-triazol-4-yl)-2-methylpyridin-3-yl)oxy)cyclohexane-1-carboxylic acid] |
| 0.01 µM | – | Cc1nc(-c2nnn(C)c2CNc2cnn(-c3ccccc3)n2)ccc1O[C@H]1CCC[C@H](C(=O)O)C1 [Example 32] |
| – | 0.022 µM | CCc1nc(-c2nnn(C)c2CNc2nc(CC(C)C)ns2)ccc1O[C@H]1CCC[C@H](C(=O)O)C1 [Example 395, (1S,3S)-3-((2-ethyl-6-(5-(((3-isobutyl-1,2,4-thiadiazol-5-yl)amino)methyl)-1-methyl-1H-1,2,3-triazol-4-yl)pyridin-3-yl)oxy)cyclohexane-1-carboxylic acid] |
| 0.13 µM | – | Cc1nc(-c2nnn(C)c2CNc2nc(-c3ccccc3)cs2)ccc1O[C@H]1CCC[C@H](C(=O)O)C1 [Example 14] |
| 0.223 µM | – | Cc1nc(-c2nnn(C)c2CNc2noc(C(C)C)n2)ccc1O[C@H]1CCC[C@H](C(=O)O)C1 [Example 174] |
| 1.12 µM | – | COc1nc(NCc2c(-c3ccc(O[C@H]4CCC[C@H](C(=O)O)C4)c(C)n3)nnn2C)ns1 [Example 4] |
| 0.061 µM | – | Cc1nc(-c2nnn(C)c2CNc2ncn(-c3ccc(F)cc3)n2)ccc1O[C@H]1CCC[C@H](C(=O)O)C1 [Example 39] |
| 0.0241 µM | – | Cc1nc(-c2nnn(C)c2CNc2noc(C3CC3(C)C)n2)ccc1O[C@H]1CCC[C@H](C(=O)O)C1 (stereo partly drawn) [Example 181] |
| 0.705 µM | – | CCCn1cc(NCc2c(-c3ccc(O[C@H]4CCC[C@H](C(=O)O)C4)c(C)n3)nnn2C)nn1 [Example 11] |
| 0.042 µM | – | Cc1nc(-c2nnn(C)c2CNc2cnn(CC(C)C)n2)ccc1O[C@H]1CCC[C@H](C(=O)O)C1 [Example 22, (1 S,3 S)-3-((6-(5-(((2-isobutyl-2H-1,2,3-triazol-4-yl)amino)methyl)-1-methyl-1H-1,2,3-triazol-4-yl)-2-methylpyridin-3-yl)oxy)cyclohexane-1-carboxylic acid] |
